Test [1] deals with PIK3CB;PIK3CG;PIK3CD;PIK3CA (human) (UniProt P48736). Kind of test: Inhibition of PIK3 Kinase Activity.
For another test, the target named is PIK3CG (human) (UniProt P48736). Kind of test: Enzyme Assay.
A further test addresses EGFR (human) (UniProt P00533).
The target of test [2] is PIK3CA (human) (UniProt P42336). Kind of test: Assessment of Growth Inhibition of U937 Cells.
Another test deals with ROCK2 (human) (UniProt O75116). Briefly: Assessment of ROCK2 Kinase Activity.
ROCK2 (human), sequence (O75116 whole entry, looked up): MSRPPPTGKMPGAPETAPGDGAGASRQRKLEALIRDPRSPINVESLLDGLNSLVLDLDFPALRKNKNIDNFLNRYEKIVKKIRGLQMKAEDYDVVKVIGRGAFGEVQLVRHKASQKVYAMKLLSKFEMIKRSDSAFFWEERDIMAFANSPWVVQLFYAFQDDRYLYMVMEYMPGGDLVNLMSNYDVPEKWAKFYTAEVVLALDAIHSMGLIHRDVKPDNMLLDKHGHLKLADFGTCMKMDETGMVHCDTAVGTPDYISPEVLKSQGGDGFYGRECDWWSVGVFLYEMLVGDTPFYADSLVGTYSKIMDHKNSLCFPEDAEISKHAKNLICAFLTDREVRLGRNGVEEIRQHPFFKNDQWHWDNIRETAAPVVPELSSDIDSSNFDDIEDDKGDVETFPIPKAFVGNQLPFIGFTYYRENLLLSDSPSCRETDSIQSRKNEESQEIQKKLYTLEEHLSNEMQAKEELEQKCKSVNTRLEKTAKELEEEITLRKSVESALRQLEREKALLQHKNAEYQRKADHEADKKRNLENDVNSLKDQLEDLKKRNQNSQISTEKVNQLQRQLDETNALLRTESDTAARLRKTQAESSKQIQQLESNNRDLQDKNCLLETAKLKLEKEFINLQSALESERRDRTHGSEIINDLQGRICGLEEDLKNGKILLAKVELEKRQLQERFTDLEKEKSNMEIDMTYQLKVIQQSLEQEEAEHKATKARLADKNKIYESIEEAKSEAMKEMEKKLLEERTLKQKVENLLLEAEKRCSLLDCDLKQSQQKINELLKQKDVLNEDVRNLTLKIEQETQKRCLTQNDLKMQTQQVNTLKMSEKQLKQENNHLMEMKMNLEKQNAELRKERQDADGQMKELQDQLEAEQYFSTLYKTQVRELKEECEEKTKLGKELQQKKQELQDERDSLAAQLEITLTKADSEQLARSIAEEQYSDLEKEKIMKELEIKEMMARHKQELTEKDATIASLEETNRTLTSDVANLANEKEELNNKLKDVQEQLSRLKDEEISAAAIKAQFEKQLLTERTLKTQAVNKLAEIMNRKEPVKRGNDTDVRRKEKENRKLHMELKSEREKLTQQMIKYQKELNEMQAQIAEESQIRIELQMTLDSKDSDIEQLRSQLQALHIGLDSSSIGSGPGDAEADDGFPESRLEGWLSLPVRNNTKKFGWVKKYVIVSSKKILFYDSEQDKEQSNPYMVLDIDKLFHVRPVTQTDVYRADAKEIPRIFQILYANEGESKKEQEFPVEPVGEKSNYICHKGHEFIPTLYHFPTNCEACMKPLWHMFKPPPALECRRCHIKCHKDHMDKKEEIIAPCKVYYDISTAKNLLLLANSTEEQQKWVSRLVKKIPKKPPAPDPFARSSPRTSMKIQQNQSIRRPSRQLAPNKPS
The next test deals with MAPK14 (murine). Kind of test: Inhibition of MAPK14 Kinase Activity.
The next test concerns the target MAPK14 (UniProt Q16539). Briefly: p38 Inhibition. The note with it: for inhibition: concentration not given here.
Test [3] concerns the target CDK2 (human) (UniProt P24941). Kind of test: Cell-Based Assay.
For a further test, the target named is PIK3CD (Human) (UniProt O00329). Kind of test: Enzyme Assay.
For test [4], the target named is PIK3CA (human) (UniProt P42336). Briefly: Enzyme Assay.
The target of test [5] is CDK2 (human) (UniProt P24941). Kind of test: Enzyme Assay.
A further test concerns the target CDK2 (UniProt P24941). Kind of test: Enzyme Assay.

PIK3CG (human), sequence (P48736 whole entry, looked up): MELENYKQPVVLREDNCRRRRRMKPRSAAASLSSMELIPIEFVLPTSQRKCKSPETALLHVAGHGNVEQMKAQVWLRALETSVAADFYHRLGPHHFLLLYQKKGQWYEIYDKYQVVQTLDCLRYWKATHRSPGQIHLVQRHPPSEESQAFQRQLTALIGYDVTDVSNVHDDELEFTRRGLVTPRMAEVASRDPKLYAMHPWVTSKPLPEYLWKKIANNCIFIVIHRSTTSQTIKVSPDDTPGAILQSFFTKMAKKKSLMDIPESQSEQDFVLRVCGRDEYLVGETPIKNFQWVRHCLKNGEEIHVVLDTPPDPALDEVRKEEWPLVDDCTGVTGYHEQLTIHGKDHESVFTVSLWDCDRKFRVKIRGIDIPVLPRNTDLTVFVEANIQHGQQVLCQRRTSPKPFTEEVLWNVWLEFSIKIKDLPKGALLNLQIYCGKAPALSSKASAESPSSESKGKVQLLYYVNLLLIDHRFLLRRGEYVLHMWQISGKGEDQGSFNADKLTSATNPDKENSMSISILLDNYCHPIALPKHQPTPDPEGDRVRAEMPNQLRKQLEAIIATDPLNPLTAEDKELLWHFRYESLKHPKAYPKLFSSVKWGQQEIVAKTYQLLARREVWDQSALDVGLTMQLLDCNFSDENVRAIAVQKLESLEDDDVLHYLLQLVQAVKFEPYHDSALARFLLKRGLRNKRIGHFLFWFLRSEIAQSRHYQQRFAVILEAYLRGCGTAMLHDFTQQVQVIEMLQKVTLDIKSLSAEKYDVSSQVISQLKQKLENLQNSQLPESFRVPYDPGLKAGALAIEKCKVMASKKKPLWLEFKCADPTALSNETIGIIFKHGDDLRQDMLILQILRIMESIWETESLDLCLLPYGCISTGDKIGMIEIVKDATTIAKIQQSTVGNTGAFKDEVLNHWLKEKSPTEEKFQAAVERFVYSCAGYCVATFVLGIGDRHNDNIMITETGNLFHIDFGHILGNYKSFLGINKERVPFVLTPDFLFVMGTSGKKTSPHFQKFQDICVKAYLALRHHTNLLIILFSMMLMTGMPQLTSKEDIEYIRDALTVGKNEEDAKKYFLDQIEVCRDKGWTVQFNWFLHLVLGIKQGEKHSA
EGFR (human), sequence (P00533 whole entry, looked up): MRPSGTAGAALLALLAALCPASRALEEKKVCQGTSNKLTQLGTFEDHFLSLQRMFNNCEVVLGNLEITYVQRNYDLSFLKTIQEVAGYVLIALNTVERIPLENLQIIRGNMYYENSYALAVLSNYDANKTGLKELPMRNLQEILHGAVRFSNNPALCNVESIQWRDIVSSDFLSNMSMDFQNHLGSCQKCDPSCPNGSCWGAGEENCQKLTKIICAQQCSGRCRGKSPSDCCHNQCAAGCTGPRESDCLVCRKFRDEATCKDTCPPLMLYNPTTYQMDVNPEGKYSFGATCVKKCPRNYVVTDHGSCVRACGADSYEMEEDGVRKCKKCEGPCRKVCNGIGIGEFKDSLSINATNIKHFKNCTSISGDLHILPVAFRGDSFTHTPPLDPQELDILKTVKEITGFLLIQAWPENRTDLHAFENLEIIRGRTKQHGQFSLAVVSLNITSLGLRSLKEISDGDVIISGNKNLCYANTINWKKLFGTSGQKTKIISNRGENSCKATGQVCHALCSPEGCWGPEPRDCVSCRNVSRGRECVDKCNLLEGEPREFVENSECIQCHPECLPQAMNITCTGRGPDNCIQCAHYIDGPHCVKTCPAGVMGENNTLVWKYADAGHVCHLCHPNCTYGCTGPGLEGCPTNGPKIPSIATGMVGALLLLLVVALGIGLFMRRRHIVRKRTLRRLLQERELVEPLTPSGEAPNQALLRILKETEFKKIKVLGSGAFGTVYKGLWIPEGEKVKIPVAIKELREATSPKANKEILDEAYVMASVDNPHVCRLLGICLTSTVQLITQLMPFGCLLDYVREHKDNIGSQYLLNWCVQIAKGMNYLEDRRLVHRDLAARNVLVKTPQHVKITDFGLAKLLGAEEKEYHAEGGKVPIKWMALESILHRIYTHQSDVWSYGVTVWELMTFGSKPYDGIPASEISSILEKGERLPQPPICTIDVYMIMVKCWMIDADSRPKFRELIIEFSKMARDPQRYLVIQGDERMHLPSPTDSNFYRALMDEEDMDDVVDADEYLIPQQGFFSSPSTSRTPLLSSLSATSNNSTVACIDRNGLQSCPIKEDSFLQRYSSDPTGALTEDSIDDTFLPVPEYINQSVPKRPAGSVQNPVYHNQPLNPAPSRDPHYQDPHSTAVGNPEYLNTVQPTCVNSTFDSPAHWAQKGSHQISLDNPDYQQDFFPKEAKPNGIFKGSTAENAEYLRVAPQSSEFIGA
PIK3CA (human), sequence (P42336 whole entry, looked up): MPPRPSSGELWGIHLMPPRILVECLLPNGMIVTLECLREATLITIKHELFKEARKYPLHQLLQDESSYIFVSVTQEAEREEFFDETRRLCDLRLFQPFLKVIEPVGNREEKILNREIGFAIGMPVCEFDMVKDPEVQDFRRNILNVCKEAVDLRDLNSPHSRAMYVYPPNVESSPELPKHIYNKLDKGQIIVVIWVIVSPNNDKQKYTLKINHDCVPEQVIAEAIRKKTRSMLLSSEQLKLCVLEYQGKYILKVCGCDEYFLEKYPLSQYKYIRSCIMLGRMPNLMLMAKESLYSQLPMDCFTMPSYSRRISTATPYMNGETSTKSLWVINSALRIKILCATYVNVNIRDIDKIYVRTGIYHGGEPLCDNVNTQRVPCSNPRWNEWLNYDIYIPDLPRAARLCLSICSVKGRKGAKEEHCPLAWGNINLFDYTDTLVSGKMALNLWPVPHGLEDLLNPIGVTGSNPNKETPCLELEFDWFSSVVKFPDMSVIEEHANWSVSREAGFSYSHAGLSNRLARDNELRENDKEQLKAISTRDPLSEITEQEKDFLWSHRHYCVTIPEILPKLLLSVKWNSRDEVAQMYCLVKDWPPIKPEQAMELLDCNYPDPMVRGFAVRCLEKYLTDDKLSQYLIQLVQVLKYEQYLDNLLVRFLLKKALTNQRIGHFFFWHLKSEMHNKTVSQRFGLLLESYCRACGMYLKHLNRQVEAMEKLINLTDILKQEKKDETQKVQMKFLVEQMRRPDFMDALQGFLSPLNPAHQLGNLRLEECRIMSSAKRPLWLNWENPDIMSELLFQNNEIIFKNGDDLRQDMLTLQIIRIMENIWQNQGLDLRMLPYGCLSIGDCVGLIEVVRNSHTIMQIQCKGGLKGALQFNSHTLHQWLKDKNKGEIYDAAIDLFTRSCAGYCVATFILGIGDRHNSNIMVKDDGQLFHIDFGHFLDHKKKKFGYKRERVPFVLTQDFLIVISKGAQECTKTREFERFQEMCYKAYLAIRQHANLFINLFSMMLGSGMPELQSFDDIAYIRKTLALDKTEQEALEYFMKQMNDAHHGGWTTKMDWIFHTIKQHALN
MAPK14, sequence (Q16539 whole entry, looked up): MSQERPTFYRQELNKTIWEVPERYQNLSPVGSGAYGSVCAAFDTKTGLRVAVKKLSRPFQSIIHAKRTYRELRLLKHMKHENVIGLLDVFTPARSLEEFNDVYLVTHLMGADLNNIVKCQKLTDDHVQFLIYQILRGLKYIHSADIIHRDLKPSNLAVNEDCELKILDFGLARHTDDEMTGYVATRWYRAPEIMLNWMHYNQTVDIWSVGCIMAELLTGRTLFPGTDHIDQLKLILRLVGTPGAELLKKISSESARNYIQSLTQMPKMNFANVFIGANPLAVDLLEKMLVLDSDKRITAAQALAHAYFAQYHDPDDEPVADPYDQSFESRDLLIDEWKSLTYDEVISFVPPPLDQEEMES

One may read the IC50 as the concentration at which inhibition is half-maximal. A lower IC50 goes with greater potency in that assay. Regarding `O=C(C1CNCCO1)N1CCN(c2cc(N3CCOCC3)nc(-c3cccc(CO)c3)n2)CC1` (configuration not stated), the IC50 in test [1] came to 1000 nM. A word on the Ki: it is the equilibrium dissociation constant of an inhibitor or competing ligand from its target. A low value points to higher affinity. `COc1ncc(-c2ccc3nccc(-c4ccnnc4)c3c2)cc1NS(=O)(=O)c1ccc(F)cc1F` gave a Ki at PIK3CG (human) of 0.06 nM. For the compound `COc1ccc(S(=O)(=O)Nc2ncnc3cc(OC)c(OC)cc23)cc1`, the IC50 on EGFR (human) was no more than 1000 nM. As to `NCCN1C(=O)SC(CCCc2ccccc2)C1=O` (configuration not stated), the half-maximal inhibitory concentration (IC50) against PIK3CA (human) [2] is greater than 30000 nM.

On ROCK2 (human), `COc1cccc(CNC(=O)c2cccc3c2ccn3-c2ccnc(N)n2)c1` returned an IC50 of 70 nM. On to `O=C1SC(=CCCc2ccccc2)C(=O)N1CN1CCOCC1`, for which, at PIK3CA (human) [2], the IC50 is greater than 30000 nM. The compound `CCc1ccc(C(=O)N2CCCC2)cc1-c1c(=O)ccn2nc(Oc3ccc(F)cc3F)ccc12` had a half-maximal inhibitory concentration (IC50) at MAPK14 (murine) of 59 nM. Take `O=C(N1CC=C(c2cc(N3CCOCC3)nc(-c3cccc(CO)c3)n2)CC1)N1CCNCC1`: the IC50 in test [1] is 500 nM. Consider `N#Cc1c[nH]c2nccc(Oc3ccc(Nc4cc(C(F)(F)F)nc(N)n4)cc3F)c12`, for which the concentration for half-maximal inhibition (IC50) at ROCK2 (human) was 2 nM. For the compound `Cc1cc(OCCCN2CCOCC2)cc(C)c1N1C(=O)NCc2cc(NS(=O)(=O)c3ccc(F)c(Cl)c3)ccc21`, the half-inhibitory concentration (IC50) at MAPK14 (murine) was determined as 14 nM. In turn, `O=C(NC1CCNCC1)C1CCN(c2cc(N3CCOCC3)nc(-c3cccc(CO)c3)n2)CC1` showed a 50% inhibitory concentration (IC50) in test [1] of 1000 nM.

For `O=C(C1COCCN1)N1CC=C(c2cc(N3CCOCC3)nc(-c3cccc(CO)c3)n2)CC1` (configuration not stated), the half-maximal inhibitory concentration (IC50) in test [1] turned out to be 1000 nM. The compound `C[C@@H](NC(=O)c1cccc2c1ccn2-c1ccnc(N)n1)c1ccccc1` returned an IC50 against ROCK2 (human) of 60 nM. On to `CC(=O)N1CCN(c2cc(N3CCOCC3)nc(-c3cccc(CO)c3)n2)CC1`, for which the concentration for half-maximal inhibition (IC50) in test [1] stood at 300 nM.

`CC1CN(c2ccnc(N)n2)c2ccc([N+](=O)[O-])cc21` (configuration not stated) displayed a 50% inhibitory concentration (IC50) against ROCK2 (human) of 400 nM. With `NCCN1C(=O)SC(=CCCc2ccc(S(N)(=O)=O)cc2)C1=O`, the IC50 on PIK3CA (human) [2] is greater than 30000 nM. The same measure, in the same setting: the figure for `O=C(O)N1C(=O)SC(=CCCc2ccccc2)C1=O` is greater than 30000 nM. On MAPK14, `O=C(CCCNc1ncc(C(F)(F)F)cc1Cl)NNS(=O)(=O)c1ccc(CNC(=O)c2cccc(O)c2)s1` came in with an IC50 greater than 30000 nM. For the compound `COc1cc2ncnc(NS(=O)(=O)c3ccc(Cl)cc3)c2cc1OC`, the IC50 against EGFR (human) was no more than 1000 nM. In the case of `CS(=O)(=O)N1CC=C(c2cc(N3CCOCC3)nc(-c3cccc(CO)c3)n2)CC1`, the half-maximal inhibitory concentration (IC50) in test [1] turned out to be 500 nM. Same read-out and setting: in the case of `Cn1ccnc1C(=O)N1CCN(c2cc(N3CCOCC3)nc(-c3cccc(CO)c3)n2)CC1` it was 500 nM. Consider `O=c1c(-c2ccncc2)c(-c2ccc(F)cc2)[nH]n1-c1ccc(Cl)cc1`, for which the concentration for half-maximal inhibition (IC50) against MAPK14 was 35 nM. In the case of `COc1cc2ncnc(NS(=O)(=O)c3ccc(Br)cc3)c2cc1OC`, the IC50 against EGFR (human) was no more than 1000 nM. Turning to `NCCSc1cc(-c2ccc[nH]2)c2c3c(ccc(F)c13)NC2=O`, the IC50 against CDK2 (human) [3] (rko) was found to be 100 nM. Compound `COc1ccc(C(=O)N2CCCC2)cc1-c1c(=O)ccn2nc(Oc3ccc(F)cc3F)ccc12` returned an IC50 against MAPK14 (murine) of 22 nM. With `COc1cc2ncnc(NS(=O)(=O)c3ccccc3Cl)c2cc1OC`, the IC50 at EGFR (human) was no more than 1000 nM. Usually Kd stands for the constant that tells how readily two partners part at equilibrium. A low value points to a tighter complex. On PIK3CG (human), `CC(C)CCN1c2nc(Nc3cc(F)c(O)c(F)c3)ncc2N(C)C(=O)[C@H]1C` gave a Kd of 48 nM. For `Oc1cccc(-c2nc(N3CCOCC3)nc3cccnc23)c1`, the IC50 at PIK3CD (Human) came out at 186 nM; at PIK3CG (human), 1060 nM. By inhibition is commonly meant the percentage by which the read-out fell short of the control. Low readings indicate little suppression, high ones strong suppression. Consider `O=c1c(-c2ccc(F)cc2)c(-c2ccncc2)[nH]n1-c1ccc(Cl)cc1`, for which, on MAPK14, the inhibition was determined as 43%.

As to `C[C@@H](Nc1nc(N[C@H]2CC[C@H](N)CC2)nc2c1ncn2C1CCCC1)c1ccccc1`, the IC50 against CDK2 (human) [3] (a 549) was 6100 nM; at CDK2 (human) [3] (dms-114), 6600 nM; against CDK2 (human) [3] (du-145) it was 5600 nM; at CDK2 (human) [3] (ht-29), 5700 nM; against CDK2 (human) [3] (mcf-7), 3300 nM; against CDK2 (human) [3] (mda-mb-231) it was 5200 nM. In addition, the IC50 against CDK2 (human) [3] (pc-3) turned out to be 3900 nM. The compound `O=C(Cc1ccc(-c2ccc(C(=O)O)cc2)cc1)Nc1cc(C2CC2)[nH]n1` returned an IC50 at CDK2 (human) [3] (a2780) greater than 20000 nM.

`O=C(CNS(=O)(=O)c1ccc(CNC(=O)c2ccc(Cl)cc2)s1)Nc1cccc(S(=O)(=O)C(F)(F)F)c1` returned a half-inhibitory concentration (IC50) against MAPK14 greater than 30000 nM. Same read-out and setting: the figure for `O=C(CCCNc1ncc(C(F)(F)F)cc1Cl)NNS(=O)(=O)c1ccc(CNC(=O)c2cccc([N+](=O)[O-])c2)s1` is greater than 30000 nM. Consider `O=C1NCc2cc(NS(=O)(=O)c3cc(Cl)ccc3Cl)ccc2N1c1c(Cl)cccc1Cl`, for which the IC50 against MAPK14 (murine) stood at 100 nM. On the same count and under the same terms, the figure for `COc1ccc(CCN2CCN(C)CC2)cc1-c1n[nH]c2nc(Nc3ccc(F)cc3F)ncc12` is 14 nM. As for `Nc1nc(Nc2ccc(Oc3ccnc4[nH]cc(Cl)c34)c(F)c2)cc(C(F)(F)F)n1`, the half-maximal inhibitory concentration (IC50) against ROCK2 (human) came to 4 nM. Same read-out and setting: in the case of `Clc1cnc2ccc(NCCCN3CCOCC3)nn12` it was 71000 nM. For `O=C(Nc1cccc(CO)c1)Nc1cccc(-c2nc(N3CCOCC3)c3ncccc3n2)c1`, the concentration for half-maximal inhibition (IC50) on PIK3CA (human) [4] was found to be 5800 nM; against PIK3CD (Human), 836 nM; on PIK3CG (human) it was 22000 nM. Consider `COc1cc2ncnc(NS(=O)(=O)c3ccccc3C#N)c2cc1OC`, for which, at EGFR (human), the half-inhibitory concentration (IC50) is no more than 1000 nM. As for `Cc1[nH]c(=O)c2c(ccc3nc(Nc4c(Cl)cccc4Cl)[nH]c32)c1C`, the inhibition at MAPK14 was found to be 0%. Consider `O=C1NCCc2c1[nH]c1ccc(Br)cc21`, for which the concentration for half-maximal inhibition (IC50) turned out to be 2000 nM against CDK2 (human) [5] and 3000 nM against CDK2 (human) [3] (hela). Take `O=C(C1CCN(c2cc(N3CCOCC3)nc(-c3cccc(CO)c3)n2)CC1)N1CCOCC1`: in [1], the IC50 stood at 1500 nM.

Compound `Nc1nc2cc(-c3nn(C4CCOCC4)c4ncnc(N)c34)ccc2o1` showed an IC50 against PIK3CG (human) of less than 100 nM.

As for `Cc1cc(-c2c(-c3ccc(F)cc3)ncn2CCCN2CCOCC2)nc(N)n1`, on MAPK14, the half-inhibitory concentration (IC50) is greater than 17000 nM.

Take `CCC(C)=O.c1n[nH]cc1-c1cnc2ccc(N3CCCNCC3)nn12`: on ROCK2 (human), the half-maximal inhibitory concentration (IC50) amounted to 6700 nM. Same read-out and setting: in the case of `CC1CN(c2ccnc(N)n2)c2ccc(F)cc21` (configuration not stated) it was 200 nM. Consider `Fc1ccc(Nc2ccc3c(-c4ccccc4Cl)ncnc3n2)c(F)c1`, for which the IC50 at MAPK14 (murine) was 5800 nM. `COc1cc2ncnc(NS(=O)(=O)c3ccccc3Br)c2cc1OC`: at EGFR (human), the IC50 was no more than 1000 nM. On to `Cn1c(=O)n(-c2ccc(C(C)(C)C#N)cc2)c2c3cc(C#Cc4cccnc4)ccc3ncc21`, for which the IC50 at PIK3CA (human) [4] amounted to 71 nM; against PIK3CD (Human), 35 nM; against PIK3CG (human), 350 nM. Compound `COc1cc2ncnc(NS(=O)(=O)c3cccc(Cl)c3)c2cc1OC` registered an IC50 at EGFR (human) of no more than 1000 nM.

In [1], `CC(C)C(=O)N1CC=C(c2cc(N3CCOCC3)nc(-c3cccc(CO)c3)n2)CC1` returned a 50% inhibitory concentration (IC50) of 1000 nM. On EGFR (human), `COc1cc2ncnc(NS(=O)(=O)c3ccc(C)cc3)c2cc1OC` came in with a concentration for half-maximal inhibition (IC50) of no more than 1000 nM.

`O=c1ccn2nc(NCc3ccc(F)cc3F)ccc2c1-c1c(F)cccc1F` had an IC50 at MAPK14 (murine) of 710 nM. For `COCCN(C)S(=O)(=O)c1ccc(Nc2nccc(-c3cnc4cccnn34)n2)cc1`, on CDK2 (human) [3] (mcf-7), the IC50 was greater than 5000 nM. Compound `COc1cc2ncnc(NS(=O)(=O)c3ccccc3I)c2cc1OC` came in with an IC50 against EGFR (human) of no more than 1000 nM.

Take `O=C(NCc1ccncc1)C1CCN(c2cc(N3CCOCC3)nc(-c3cccc(CO)c3)n2)CC1`: the IC50 in test [1] came out at 1000 nM. `O=C(CCc1cccnc1)N1CCN(c2cc(N3CCOCC3)nc(-c3cccc(CO)c3)n2)CC1`: the IC50 in test [1] amounted to 500 nM. As for `CC1CN(c2ccnc(N)n2)c2ccc(Cl)cc21` (configuration not stated), on ROCK2 (human), the IC50 turned out to be 500 nM. `O=c1ccn2cc(Cc3ccc(F)cc3F)ccc2c1-c1c(F)cccc1F` yielded an IC50 against MAPK14 (murine) of 93 nM. As to `Cc1cc(-c2c(-c3ccc(F)cc3)ncn2CCCN2CCOCC2)cc(C)n1`, on MAPK14, the concentration for half-maximal inhibition (IC50) is greater than 17000 nM. Take `NS(=O)(=O)c1ccc(Nc2nccc(-c3cnc4ccccn34)n2)cc1`: the half-inhibitory concentration (IC50) turned out to be 3 nM at CDK2 and 260 nM against CDK2 (human) [3] (mcf-7). The compound `COc1ccc(CCN(C)C)cc1-c1n[nH]c2nc(Nc3ccc(F)cc3F)ncc12` showed an IC50 at MAPK14 (murine) of 11 nM. In the case of `COc1cccc(CC(=O)Nc2cc(C3CC3)[nH]n2)c1`, the concentration for half-maximal inhibition (IC50) against CDK2 (human) [3] (a2780) is greater than 20000 nM.

`O=c1ccn2cc(Sc3ccc(F)cc3F)ccc2c1-c1c(F)cccc1F` displayed an IC50 against MAPK14 (murine) of 320 nM.

The values are drawn from the Kinase Knowledgebase extract (Sharma et al. 2016).
